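Test compounds were applied to cells in 96-well plates for 48 hours at 5 doses. At the TGI there is no net growth.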
How the values were obtained:
Assay in all cases: NCI tumour cell line growth inhibition, 48 h
DLD-1 colon = tested on: DLD-1 colon
DMS 114 small cell lung = tested on: DMS 114 small cell lung
DMS 273 small cell lung = tested on: DMS 273 small cell lung
HOP-18 NSCLC = tested on: HOP-18 NSCLC
M19-MEL melanoma = tested on: M19-MEL melanoma
P388 leukemia = tested on: P388 leukemia
P388/ADR leukemia = tested on: P388/ADR leukemia
SN12K1 renal = tested on: SN12K1 renal
SNB-78 CNS = tested on: SNB-78 CNS
XF 498 CNS = tested on: XF 498 CNS
LXFL 529 NSCLC = tested on: LXFL 529 NSCLC
RXF-631 renal = tested on: RXF-631 renal

SMILES: CN(C)CCOc1cc2c(c3ccccc13)-c1ccccc1C2=O
- TGI (DLD-1 colon): 4.01 µM
- TGI (DMS 114 small cell lung): 2.65 µM
- TGI (DMS 273 small cell lung): 1.85 µM
- TGI (HOP-18 NSCLC): 8.58 µM
- TGI (M19-MEL melanoma): 2.89 µM
- TGI (P388 leukemia): 2.7 µM
- TGI (P388/ADR leukemia): 1.95 µM
- TGI (SN12K1 renal): 2.04 µM
- TGI (SNB-78 CNS): 23 µM
- TGI (XF 498 CNS): 3.28 µM

SMILES: CS(=O)(=O)c1nc(N)nc2nc[nH]c12
- TGI (DLD-1 colon): > 100 µM
- TGI (DMS 114 small cell lung): > 100 µM
- TGI (DMS 273 small cell lung): > 100 µM
- TGI (HOP-18 NSCLC): > 100 µM
- TGI (LXFL 529 NSCLC): > 100 µM
- TGI (M19-MEL melanoma): > 100 µM
- TGI (SNB-78 CNS): > 100 µM
- TGI (XF 498 CNS): > 100 µM

SMILES: CCSC(=Nc1ccccc1)SC
- TGI (DLD-1 colon): > 100 µM
- TGI (DMS 114 small cell lung): > 100 µM
- TGI (DMS 273 small cell lung): > 100 µM
- TGI (HOP-18 NSCLC): > 100 µM
- TGI (LXFL 529 NSCLC): > 100 µM
- TGI (M19-MEL melanoma): > 100 µM
- TGI (RXF-631 renal): > 100 µM
- TGI (SNB-78 CNS): > 100 µM
- TGI (XF 498 CNS): > 100 µM

SMILES: N#CN=Nc1cc(Cl)c(N=NC#N)cc1Cl
- TGI (DLD-1 colon): > 100 µM
- TGI (DMS 114 small cell lung): > 100 µM
- TGI (DMS 273 small cell lung): > 100 µM
- TGI (LXFL 529 NSCLC): > 100 µM
- TGI (M19-MEL melanoma): > 100 µM
- TGI (SNB-78 CNS): > 100 µM
- TGI (XF 498 CNS): > 100 µM

SMILES: CCCCOC(=O)CN1C(=O)c2ccccc2C1=O
- TGI (DLD-1 colon): > 100 µM
- TGI (DMS 273 small cell lung): > 100 µM
- TGI (M19-MEL melanoma): > 100 µM
- TGI (SNB-78 CNS): > 100 µM
- TGI (XF 498 CNS): > 100 µM

SMILES: CC(N)Cc1cccc(C(F)(F)F)c1 (stereo unspecified)
- TGI (DLD-1 colon): > 100 µM
- TGI (DMS 114 small cell lung): > 100 µM
- TGI (DMS 273 small cell lung): > 100 µM
- TGI (HOP-18 NSCLC): > 100 µM
- TGI (LXFL 529 NSCLC): > 100 µM
- TGI (M19-MEL melanoma): > 100 µM
- TGI (RXF-631 renal): > 100 µM
- TGI (SNB-78 CNS): > 100 µM

SMILES: Cc1nc(Nc2nnc(-c3cc([N+](=O)[O-])cc([N+](=O)[O-])c3C)o2)sc1C(=O)CC(=O)Cc1nc2ccc(Cl)cc2[nH]c1=O
- TGI (DMS 114 small cell lung): > 100 µM
- TGI (DMS 273 small cell lung): > 100 µM
- TGI (LXFL 529 NSCLC): > 100 µM
- TGI (M19-MEL melanoma): > 100 µM
- TGI (SNB-78 CNS): > 100 µM
- TGI (XF 498 CNS): > 100 µM

SMILES: C[C@]12CCC3c4ccc(OC(=O)c5ccccc5)cc4CC[C@H]3C1CC[C@@H]2OC(=O)C12OC1CCC2=O (stereo partly specified)
- TGI (DLD-1 colon): 6.37 µM
- TGI (DMS 114 small cell lung): 6.7 µM
- TGI (DMS 273 small cell lung): 9.52 µM
- TGI (HOP-18 NSCLC): 10.7 µM
- TGI (LXFL 529 NSCLC): 3.76 µM
- TGI (M19-MEL melanoma): 11.3 µM
- TGI (SNB-78 CNS): 14.1 µM
- TGI (XF 498 CNS): 11.1 µM

Source: PubChem BioAssay (NCI)
